Results: the CheMixHub viscosity set

Assay: xn = mol fraction of the nth substance listed

CCCOC(=O)c1ccccc1 + CC#N
viscosity [mPa·s], 101.33 kPa
Details	x1 = 0.127	x1 = 0.247	x1 = 0.362	x1 = 0.467	x1 = 0.567	x1 = 0.658	x1 = 0.748	x1 = 0.842	x1 = 0.928
293.15 K	0.439	0.48	0.544	0.614	0.755	0.879	1.113	1.522	2.048
303.15 K	0.397	0.43	0.484	0.54	0.654	0.749	0.929	1.237	1.609
313.15 K	0.362	0.386	0.431	0.479	0.57	0.652	0.786	1.025	1.307
323.15 K	0.326	0.346	0.386	0.424	0.499	0.564	0.67	0.853	1.075

CCCC1c2cc(c(O)c(/N=N/c3cccc(C(=O)O)c3)c2O)C(CCC)c2cc(c(O)c(/N=N/c3cccc(C(=O)O)c3)c2O)C(CCC)c2cc(c(O)c(/N=N/c3cccc(C(=O)O)c3)c2O)C(CCC)c2cc1c(O)c(/N=N/c1cccc(C(=O)O)c1)c2O (stereo unspecified) + CS(C)=O
viscosity [mPa·s], 101 kPa
Details	293.15 K	298.15 K	303.15 K	308.15 K	313.15 K
x1 = 0.000457	2.314	2.072	1.87	1.698	1.555
x1 = 0.000544	2.345	2.1	1.893	1.724	1.579
x1 = 0.000616	2.369	2.124	1.907	1.737	1.597
x1 = 0.000708	2.391	2.143	1.931	1.756	1.607
x1 = 0.0008532	2.425	2.167	1.952	1.779	1.625
x1 = 0.001009	2.471	2.209	1.991	1.812	1.651
x1 = 0.001122	2.52	2.25	2.024	1.838	1.68
x1 = 0.001351	2.556	2.284	2.045	1.858	1.695
x1 = 0.001491	2.633	2.346	2.104	1.905	1.739
x1 = 0.001636	2.678	2.38	2.138	1.934	1.764
x1 = 0.001789	2.724	2.43	2.176	1.967	1.79

O=C(O)c1cc(O)c(O)c(O)c1 + CC(C)=O
viscosity [mPa·s], 101 kPa
Details	293.15 K	298.15 K	303.15 K	308.15 K	313.15 K
x1 = 0.0034	0.361	0.345	0.332	0.318	0.307
x1 = 0.0069	0.383	0.367	0.348	0.337	0.323
x1 = 0.01	0.401	0.388	0.368	0.352	0.338
x1 = 0.014	0.424	0.409	0.383	0.368	0.356

Oc1ccccc1Cl + CCN(CC)c1ccccc1
viscosity [mPa·s], 101 kPa
Details	x1 = 0.1	x1 = 0.2015	x1 = 0.3033	x1 = 0.4011	x1 = 0.497	x1 = 0.6026	x1 = 0.7	x1 = 0.7988	x1 = 0.9003
298 K	2.116	2.366	2.722	3.122	3.629	4.195	4.548	4.623	4.12
303 K	1.858	2.053	2.31	2.589	2.933	3.337	3.533	3.605	3.32
308 K	1.668	1.818	2.013	2.192	2.432	2.741	2.89	2.938	2.769
313 K	1.507	1.626	1.775	1.94	2.12	2.318	2.42	2.463	2.361
318 K	1.37	1.47	1.641	1.701	1.841	1.998	2.086	2.129	2.135

CCCN + COCCO
viscosity [mPa·s]
Details	293.15 K	298.15 K
101 kPa, x2 = 0.0294	–	0.387
101 kPa, x2 = 0.0662	–	0.415
101 kPa, x2 = 0.0845	–	0.431
101 kPa, x2 = 0.1053	–	0.448
101 kPa, x2 = 0.1391	–	0.482
101 kPa, x2 = 0.1936	–	0.54
101 kPa, x2 = 0.2423	–	0.6
101 kPa, x2 = 0.2765	–	0.644
101 kPa, x2 = 0.321	–	0.708
101 kPa, x2 = 0.3635	–	0.775
101 kPa, x2 = 0.3989	–	0.835
101 kPa, x2 = 0.4418	–	0.909
101 kPa, x2 = 0.4845	–	0.974
101 kPa, x2 = 0.5165	–	1.031
101 kPa, x2 = 0.5599	–	1.106
101 kPa, x2 = 0.5942	–	1.166
101 kPa, x2 = 0.6575	–	1.265
101 kPa, x2 = 0.6877	–	1.309
101 kPa, x2 = 0.7452	–	1.384
101 kPa, x2 = 0.8042	–	1.442
101 kPa, x2 = 0.8424	–	1.47
101 kPa, x2 = 0.8852	–	1.495
101 kPa, x2 = 0.9064	–	1.505
101 kPa, x2 = 0.9584	–	1.522
101 kPa, x2 = 0.9794	–	1.527
101.3 kPa, x2 = 0.0502	0.396	0.38
101.3 kPa, x2 = 0.1009	0.435	0.415
101.3 kPa, x2 = 0.1501	0.479	0.453
101.3 kPa, x2 = 0.2002	0.533	0.501
101.3 kPa, x2 = 0.2504	0.599	0.559
101.3 kPa, x2 = 0.3	0.674	0.627
101.3 kPa, x2 = 0.3498	0.759	0.703
101.3 kPa, x2 = 0.3997	0.852	0.785
101.3 kPa, x2 = 0.4499	0.95	0.87
101.3 kPa, x2 = 0.4998	1.05	0.955
101.3 kPa, x2 = 0.5504	1.149	1.039
101.3 kPa, x2 = 0.6	1.241	1.116
101.3 kPa, x2 = 0.6498	1.325	1.186
101.3 kPa, x2 = 0.6999	1.4	1.249
101.3 kPa, x2 = 0.7495	1.462	1.304
101.3 kPa, x2 = 0.8	1.515	1.354
101.3 kPa, x2 = 0.8511	1.561	1.4
101.3 kPa, x2 = 0.8999	1.601	1.443
101.3 kPa, x2 = 0.9499	1.647	1.49

[O-][Cl+3]([O-])([O-])O + CC(=O)O
viscosity [mPa·s], 101 kPa
Details	x1 = 0.2029	x1 = 0.3254	x1 = 0.4484	x1 = 0.5117
293.15 K	0.2653	0.6193	0.4081	0.2388
308.15 K	0.1146	0.2603	0.1883	0.1226
323.15 K	–	0.1268	–	–

CCCOC(=O)c1ccccc1 + CCCCCCCCCC
101 kPa
Details	viscosity [mPa·s]
298.15 K, x2 = 0.0819	2.098
298.15 K, x2 = 0.1156	2.012
298.15 K, x2 = 0.1582	1.889
298.15 K, x2 = 0.2027	1.779
298.15 K, x2 = 0.2437	1.682
298.15 K, x2 = 0.2875	1.589
298.15 K, x2 = 0.3302	1.501
298.15 K, x2 = 0.3837	1.407
298.15 K, x2 = 0.4284	1.338
298.15 K, x2 = 0.4707	1.277
298.15 K, x2 = 0.5198	1.213
298.15 K, x2 = 0.57	1.156
298.15 K, x2 = 0.6127	1.112
298.15 K, x2 = 0.7143	1.02
298.15 K, x2 = 0.773	0.977
298.15 K, x2 = 0.8262	0.94
298.15 K, x2 = 0.8749	0.914
298.15 K, x2 = 0.9333	0.887
308.15 K, x2 = 0.0562	1.757
308.15 K, x2 = 0.1002	1.658
308.15 K, x2 = 0.1418	1.569
308.15 K, x2 = 0.1788	1.495
308.15 K, x2 = 0.2302	1.4
308.15 K, x2 = 0.264	1.343
308.15 K, x2 = 0.3167	1.256
308.15 K, x2 = 0.356	1.198
308.15 K, x2 = 0.3966	1.142
308.15 K, x2 = 0.4436	1.087
308.15 K, x2 = 0.4971	1.029
308.15 K, x2 = 0.5403	0.99
308.15 K, x2 = 0.5866	0.952
308.15 K, x2 = 0.6432	0.908
308.15 K, x2 = 0.6916	0.875
308.15 K, x2 = 0.7401	0.847
308.15 K, x2 = 0.7945	0.816
308.15 K, x2 = 0.8513	0.789
308.15 K, x2 = 0.9295	0.759
318.15 K, x2 = 0.0529	1.466
318.15 K, x2 = 0.0776	1.417
318.15 K, x2 = 0.1165	1.349
318.15 K, x2 = 0.161	1.273
318.15 K, x2 = 0.2024	1.211
318.15 K, x2 = 0.2495	1.144
318.15 K, x2 = 0.2905	1.092
318.15 K, x2 = 0.3397	1.034
318.15 K, x2 = 0.3834	0.987
318.15 K, x2 = 0.432	0.94
318.15 K, x2 = 0.4779	0.899
318.15 K, x2 = 0.5308	0.857
318.15 K, x2 = 0.5771	0.824
318.15 K, x2 = 0.6312	0.79
318.15 K, x2 = 0.6794	0.763
318.15 K, x2 = 0.7616	0.722
318.15 K, x2 = 0.8328	0.693
318.15 K, x2 = 0.8708	0.679
318.15 K, x2 = 0.906	0.668

CCCCOC(C)=O + CCCCCCCCCC
298.15 K, 101.3 kPa
Details	viscosity [mPa·s]
x1 = 0.3547	0.7515
x1 = 0.4366	0.7352
x1 = 0.5375	0.7168
x1 = 0.6473	0.7018
x1 = 0.7119	0.6958
x1 = 0.8212	0.6854
x1 = 0.9331	0.6851
